# Measured values: paper PMC4126480, “Evaluation of drug interaction potential of Labisia pumila (Kacip Fatimah) and its constituents” (Frontiers in Pharmacology, 2014)
# Several values for one entry are separate records, joined by “and”; a condition that tells them apart may be missing. Equal values may be shown once.
# How the values were obtained:
# CYP2C9 [1] = target: T1, CYP2C9 (Homo sapiens, UniProt P11712); test: Prediction of in vivo HDI from in vitro results, CYP2C9; parameters: key to Likelihood of causing HDI: If the IC50 values were lower than the GIT or plasma concentration, then the test compound or extract is likely to cause HDI in vivo; conditions: for Likelihood of causing HDI: CYP2C9, IC50 compared with estimated GIT and plasma concentrations; for Plasma concentration: Table 3, CYP2C9 section
# T1 construct: purchased BD Gentest (Woburn, MA, USA); host or cells: baculovirus expression system
# T1 sequence (P11712 whole entry): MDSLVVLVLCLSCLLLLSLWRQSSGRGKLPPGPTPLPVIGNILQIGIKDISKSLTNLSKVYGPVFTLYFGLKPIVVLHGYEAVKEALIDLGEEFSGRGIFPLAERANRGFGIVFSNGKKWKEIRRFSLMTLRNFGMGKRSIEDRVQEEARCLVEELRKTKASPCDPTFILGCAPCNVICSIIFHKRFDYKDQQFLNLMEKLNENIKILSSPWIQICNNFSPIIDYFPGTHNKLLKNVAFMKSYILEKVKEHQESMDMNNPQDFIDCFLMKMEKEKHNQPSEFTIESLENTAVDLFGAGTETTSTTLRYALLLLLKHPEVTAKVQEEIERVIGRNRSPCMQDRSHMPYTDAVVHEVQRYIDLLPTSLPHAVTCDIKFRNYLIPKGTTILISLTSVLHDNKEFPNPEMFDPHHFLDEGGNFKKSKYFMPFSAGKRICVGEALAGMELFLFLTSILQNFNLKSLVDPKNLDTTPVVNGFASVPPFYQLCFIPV
# Procedure: (§1) All assumptions to predict the HDI potential of KF methanolic extract and its constituents were according to previously published report ([Awortwe et al., 2014]). The % yield was calculated from the amounts extracted from the KF roots ([Ali and Khan, 2011]). The human GIT volume is 250 mL and plasma volume is about 3 L. The commonly used maximum dose of KF extract capsules is 560 mg per day ([Abdul Kadir et al., 2012]) and accordingly we estimated the concentration per dose, GIT, and plasma concentrations of extract and its constituents. We then compared the in vitro IC50 values obtained from recombinant CYPs with estimated GIT and plasma concentrations. If the IC50 values were lower than the GIT or plasma concentration, then the test compound or extract is likely to cause HDI in vivo.
# CYP2C19 = target: T2, CYP2C19 (Homo sapiens, UniProt P33261); test: Reversible inhibition (co-incubation assay) of recombinant CYP2C19; format: in vitro ADME
# T2 construct: purchased BD Gentest (Woburn, MA, USA); host or cells: baculovirus expression system
# T2 sequence (P33261 whole entry): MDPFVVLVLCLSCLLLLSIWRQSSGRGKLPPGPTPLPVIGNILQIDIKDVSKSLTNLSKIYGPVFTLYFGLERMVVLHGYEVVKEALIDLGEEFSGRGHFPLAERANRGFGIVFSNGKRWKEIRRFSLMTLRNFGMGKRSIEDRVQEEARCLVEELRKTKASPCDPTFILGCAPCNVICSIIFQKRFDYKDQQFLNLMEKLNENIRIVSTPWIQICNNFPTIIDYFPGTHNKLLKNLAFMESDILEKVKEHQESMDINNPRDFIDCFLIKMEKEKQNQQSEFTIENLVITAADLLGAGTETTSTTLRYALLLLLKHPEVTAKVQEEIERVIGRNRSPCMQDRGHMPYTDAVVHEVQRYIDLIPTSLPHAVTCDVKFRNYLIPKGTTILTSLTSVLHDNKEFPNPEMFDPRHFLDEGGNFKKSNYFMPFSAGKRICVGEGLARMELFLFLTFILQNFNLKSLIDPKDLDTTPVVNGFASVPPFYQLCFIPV
# Procedure: (§2) The assay for reversible inhibition was conducted in a total volume of 200 μL in 96-well microplates. The assay conditions, enzyme and substrate concentrations were similar as reported earlier ([Crespi et al., 1997]; [Manda et al., 2013]). Test samples or positive controls were serially diluted in a solution (100 μL) of cofactors mix, control protein (0.05 mg of protein/mL), and G-6-PDH to achieve six concentrations (100-0.4 μM or μg/mL). Initial readings were taken to record any inherent fluorescence and the plates were incubated at 37°C for 10 min. Reaction was initiated by the addition of enzyme substrate mixture (100 μL) followed by incubation for 15, 30, or 45 min. The reaction was terminated by the addition of 75 μL of ice cold acetonitrile/0.5 M Tris base (80:20). Fluorescence was measured on Spectramax M5 plate reader (Molecular Devices, Sunnyvale, CA, USA) at specified excitation and emission wavelengths for each substrate. IC50 values (co-incubation assay) were obtained from concentration-response curves generated by plotting concentration versus % inhibition.
# CYP2D6 = target: T3, CYP2D6 (Homo sapiens, UniProt P10635); test: Reversible inhibition of recombinant CYP2D6; format: in vitro ADME
# T3 construct: purchased BD Gentest (Woburn, MA, USA); host or cells: baculovirus expression system
# T3 sequence (P10635 whole entry): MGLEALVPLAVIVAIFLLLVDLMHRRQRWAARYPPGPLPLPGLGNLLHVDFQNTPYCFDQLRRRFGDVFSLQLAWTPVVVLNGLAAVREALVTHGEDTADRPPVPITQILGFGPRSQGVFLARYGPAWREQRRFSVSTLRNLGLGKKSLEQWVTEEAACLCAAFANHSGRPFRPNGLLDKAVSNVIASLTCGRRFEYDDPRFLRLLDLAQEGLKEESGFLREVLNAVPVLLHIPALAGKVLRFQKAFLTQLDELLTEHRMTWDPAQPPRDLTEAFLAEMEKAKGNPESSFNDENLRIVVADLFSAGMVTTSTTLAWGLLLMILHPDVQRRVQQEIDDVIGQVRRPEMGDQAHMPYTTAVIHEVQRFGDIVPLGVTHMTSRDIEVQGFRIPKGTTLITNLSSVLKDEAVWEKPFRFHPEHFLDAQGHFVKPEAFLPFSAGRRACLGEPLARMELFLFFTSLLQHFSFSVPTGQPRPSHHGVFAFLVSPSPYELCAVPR
# Procedure: as §2
# [2] = Estimation of concentration per dose, GIT and plasma concentrations (560 mg KF extract dose); parameters: species or system human; conditions: for Estimated concentration per dose: 560 mg KF extract, single dose, from % yield; for Estimated GIT concentration / Estimated Plasma concentration: 560 mg dose; for Estimated GIT concentration: human GIT volume 250 mL; for Estimated Plasma concentration: Table 2, plasma volume 3 L, 100% bioavailable assumed
# Procedure: as §1
# CYP2C9 [3] = target: T1, CYP2C9; test: Reversible inhibition (co-incubation assay) of recombinant CYP2C9; format: in vitro ADME
# Procedure: as §2
# CYP3A4 = target: T4, CYP3A4 (Homo sapiens, UniProt P08684); test: Prediction of in vivo HDI from in vitro results, CYP3A4; parameters: key to Likelihood of causing HDI: If the IC50 values were lower than the GIT or plasma concentration, then the test compound or extract is likely to cause HDI in vivo; conditions: for Likelihood of causing HDI: CYP3A4, IC50 compared with estimated GIT and plasma concentrations; for Plasma concentration: Table 3, CYP3A4 section
# T4 construct: purchased BD Gentest (Woburn, MA, USA); host or cells: baculovirus expression system
# T4 sequence (P08684 whole entry): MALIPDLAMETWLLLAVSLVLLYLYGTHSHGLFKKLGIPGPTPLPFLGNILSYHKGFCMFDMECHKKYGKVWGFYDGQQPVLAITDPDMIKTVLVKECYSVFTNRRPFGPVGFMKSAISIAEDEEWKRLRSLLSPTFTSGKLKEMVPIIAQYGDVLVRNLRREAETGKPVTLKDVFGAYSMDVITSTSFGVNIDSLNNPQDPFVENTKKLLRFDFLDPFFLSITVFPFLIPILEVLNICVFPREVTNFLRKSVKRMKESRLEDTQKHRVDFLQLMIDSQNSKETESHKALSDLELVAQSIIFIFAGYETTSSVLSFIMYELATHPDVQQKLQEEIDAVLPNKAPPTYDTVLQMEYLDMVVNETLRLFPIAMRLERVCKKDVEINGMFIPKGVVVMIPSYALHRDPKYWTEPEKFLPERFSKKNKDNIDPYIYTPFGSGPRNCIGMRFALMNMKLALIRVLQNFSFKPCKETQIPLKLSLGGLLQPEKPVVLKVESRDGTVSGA
# Procedure: as §1
# PXR = target: T5, PXR (Homo sapiens, UniProt O75469); test: PXR activation, luciferase reporter gene assay in HepG2 cells; format: cell-based
# T5 construct: expressed in transfected cells; host or cells: HepG2 cells, transient electroporation with pSG5-PXR and the CYP3A4-PXRE-LUC reporter
# T5 sequence (O75469 1-434): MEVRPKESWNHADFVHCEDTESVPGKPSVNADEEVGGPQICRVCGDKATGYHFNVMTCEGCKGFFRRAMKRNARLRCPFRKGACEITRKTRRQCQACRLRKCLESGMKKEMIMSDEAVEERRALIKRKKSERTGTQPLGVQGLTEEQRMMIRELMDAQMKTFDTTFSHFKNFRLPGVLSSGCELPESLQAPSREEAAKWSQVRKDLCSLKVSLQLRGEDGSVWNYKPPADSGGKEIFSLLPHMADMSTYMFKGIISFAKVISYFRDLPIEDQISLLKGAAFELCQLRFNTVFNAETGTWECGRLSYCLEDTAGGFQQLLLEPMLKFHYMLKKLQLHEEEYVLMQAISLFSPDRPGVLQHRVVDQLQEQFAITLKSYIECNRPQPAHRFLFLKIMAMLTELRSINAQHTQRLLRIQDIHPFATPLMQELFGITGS
# Procedure: The modulation of PXR activity by test samples was determined in HepG2 cells transiently transfected with pSG5-PXR (25 μg) and PCR5 plasmid DNA (25 μg) by electroporation at 180 V, 1 pulse for 70 msec. The cells were plated in 96-well plates at a density of 50,000 cells per well. After 24 h, test samples and drug controls were added at various concentrations. After additional 24 hour incubation, the media was aspirated and 40 μL of luciferase reagent (Promega Corporation, Madison, WI, USA) was added to each well and luminescence was measured on Spectramax M5 plate reader (Molecular Devices, Sunnyvale, CA, USA). The fold induction in luciferase activity in the treated cells was calculated in comparison to vehicle treated cells.
# [4] = recombinant CYP2C19, co-incubation
Likelihood of causing HDI (CYP2C9 [1]),Plasma concentration (CYP2C9 [1]),IC50 (CYP2C19; [4]),IC50 (CYP2D6),Estimated concentration per dose [2],Estimated GIT concentration [2],Estimated Plasma concentration [2],IC50 (CYP2C9 [3]),Likelihood of causing HDI (CYP3A4),Plasma concentration (CYP3A4),"Induction of PXR activity (PXR; HepG2, 30 μM (highest tested concentration), vs vehicle)","Induction of PXR activity at lower concentration (PXR; HepG2, below 30 μM)",Structure (SMILES),"IC50 (CYP2C19; human, recombinant CYP2C19, recombinant CYP2C19, co-incubation)"
likely,13.22 µg/mL,3.77 µM,87.9 µM,6.72 mg/mL,27.1 µg/mL,2.2 µg/mL,11.9 µM,likely,13.22 µg/mL,,,CCCC/C=C\CCCCCCCCCc1cc(O)cc(O)c1 [5-[10(Z)-pentadecenyl]resorcinol],
likely,0.79 µg/mL,8 µM and 7.99 µM,33.2 µM,6.77 mg/mL,27.1 µg/mL,2.25 µg/mL,16 µM and 15.1 µM,unlikely,0.79 µg/mL,,,CCCC/C=C\CCCCCCCCCC1=C(c2c(O)cc(O)cc2CCCCCCCCC/C=C\CCCC)C(=O)C=C(OC)C1=O [Demethylbelamcandaquinone B],
unlikely,0.016 µg/mL,17 µM,,0.05 mg/mL,0.20 µg/mL,0.016 µg/mL,17 µM,unlikely,0.016 µg/mL,1.8 fold,not significant,CCCC/C=C\CCCCCCCCCc1cc(O)cc2oc3cc(OC)c(O)c(CCCCCCCCC/C=C\CCCC)c3c12 [Fatimahol],

Structure (SMILES),Likelihood of causing HDI (CYP2C9 [1]),Plasma concentration (CYP2C9 [1]),IC50 (CYP2C19; [4]),IC50 (CYP2D6),Estimated concentration per dose [2],Estimated GIT concentration [2],Estimated Plasma concentration [2],IC50 (CYP2C9 [3]),Likelihood of causing HDI (CYP3A4),Plasma concentration (CYP3A4),"Induction of PXR activity (PXR; HepG2, 30 μM (highest tested concentration), vs vehicle)","Induction of PXR activity at lower concentration (PXR; HepG2, below 30 μM)","IC50 (CYP2C19; human, recombinant CYP2C19, recombinant CYP2C19, co-incubation)"
CCCC/C=C\CCCCCCCCCc1cc(O)cc(OC)c1 [Belamcandol B],remote,,2.2 ± 0.6 µM,105 µM,3.41 mg/mL,13.64 µg/mL,1.13 µg/mL,69.2 µM,Remote,1.52 µg/mL,,,2.2 µg/mL
